# Source: patent publication US20090099195A1 (ASTRAZENECA AB, priority 2007, published 2009)
# Molecular target: T1, hP2X3 (human Purinergic P2X receptors subtype 3), clone A (Homo sapiens, UniProt P56373)
# T1 sequence (P56373 1-397): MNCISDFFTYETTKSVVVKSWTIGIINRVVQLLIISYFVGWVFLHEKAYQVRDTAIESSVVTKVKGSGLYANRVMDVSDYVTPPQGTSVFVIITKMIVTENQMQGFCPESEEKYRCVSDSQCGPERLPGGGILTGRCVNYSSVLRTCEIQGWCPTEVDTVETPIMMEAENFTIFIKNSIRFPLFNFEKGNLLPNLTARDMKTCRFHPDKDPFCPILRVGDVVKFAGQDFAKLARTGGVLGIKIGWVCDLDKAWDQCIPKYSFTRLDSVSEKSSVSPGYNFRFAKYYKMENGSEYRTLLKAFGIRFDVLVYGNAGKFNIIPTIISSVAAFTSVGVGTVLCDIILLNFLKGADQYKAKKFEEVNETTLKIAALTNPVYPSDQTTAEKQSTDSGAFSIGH
# Assay: hP2X3 FLIPR calcium (Fluo-4) antagonist assay, clone A
# Settings: Human P2X3 FLIPR Clone A Mean IC50 (nM), RLE cells expressing hP2X3 clone A (AB016608); agonist 500 nM α,β-methylene-ATP
# Experimental: The assay used a calcium indicator dye (Fluo-4) that emits fluorescence, the intensity of which is related to the concentration of calcium that entered the cell when P2X3 was activated and the channel opened. Activation of hP2X3 or rat P2X3 and rat P2X2/3 (from the coexpression of rat P2X3 and rat P2×2) is elicited the by P2X3 agonist α,β methylene-ATP (Sigma M6517), and the resulting fluorescence is measured with a FLIPR II™ instrument (Molecular Devices). Compounds are tested for their ability to inhibit the agonist-induced fluorescent signal.
# For the rat P2X2/3 HEK-TREX cells, induction of the rat P2X3 expression is used to generate the rat P2X2/3 channels in HEK-TREX cells and performed by addition of 1 μg/mL tetracycline (Invitrogen) 24 h prior to compounds testing to the HEK-TREX expressing the rat P2X2 constitutively. On the day of the experiment, the cells and test compounds are prepared as follows. […] After preparing the compounds, the medium is removed from the cell plates by inversion. A loading solution of 30 μL assay buffer containing 4 μM of the calcium indicator dye FLUO-4 AM (Molecular Probes F14202) is added to each well using a Multidrop (Labsystems). […] The incubation is terminated by washing the cells four times in assay buffer using a Skatron Embla (Molecular Devices), and 25 μL of assay buffer was left in each well. Cell plates are then transferred to the FLIPR. Experiments are initiated by measuring a baseline fluorescence reading for 10 seconds, followed by the addition of 12.5 μL of cpds and data sampling for a total 280 seconds. The experiments are terminated by addition of 12.5 μL of a reference agonist (500 nM α,β-methylene-ATP) or buffer, producing a final assay volume of 50 μL followed by data sampling for an additional 280 seconds.
# In P2X3 antagonist experiments (human and rat assays) data are analysed as normalised maximal peak fluorescence monitored following agonist addition and calculated as percent of relative fluorescent counts from control agonist. The dose-response antagonist inhibition curves are analyzed in a 4-parameter sigmoidal fit using a non-linear curve-fitting program (XLfit version 5.0.6, ID Business Solutions Limited, Guildford, UK).
row,SMILES,IC50 [nM]
1,"CCCOc1ccc([C@@H](C)Nc2nc(N3CCN(C(C)=O)CC3)nc3c2CN(C(C)C)C3=O)cc1F [Example 193, (R)-2-(4-acetylpiperazin-1-yl)-4-(1-(3-fluoro-4-propoxyphenyl)ethylamino)-6-isopropyl-5H-pyrrolo[3,4-d]pyrimidin-7(6H)-one]",235
2,"CCOc1ncc([C@@H](C)Nc2nc(N3CCN(C(C)=O)CC3)nc3c2CN(C(C)C)C3=O)cc1Cl [Example 194, (R)-2-(4-acetylpiperazin-1-yl)-4-(1-(5-chloro-6-ethoxypyridin-3-yl)ethylamino)-6-isopropyl-5H-pyrrolo[3,4-d]pyrimidin-7(6H)-one]",283
3,"CC(=O)N1CCN(c2nc(NC(C)c3nc4ccccc4s3)c3c(n2)C(=O)N(C(C)C)C3)CC1 (stereo not shown) [Example 236, 2-(4-acetylpiperazin-1-yl)-4-(1-(benzo[d]thiazol-2-yl)ethylamino)-6-isopropyl-5H-pyrrolo[3,4-d]pyrimidin-7(6H)-one]",564
4,"CC(=O)N1CCN(c2nc3c(c(N4CCCC4c4ccc(C)c(C)c4)n2)CN(C(C)C)C3=O)CC1 (stereo not shown) [Example 298, 2-(4-acetylpiperazin-1-yl)-4-[2-(3,4-dimethylphenyl)pyrrolidin-1-yl]-6-(1-methylethyl)-5,6-dihydro-7H-pyrrolo[3,4-d]pyrimidin-7-one]",454
5,"CCOc1ccc([C@H]2CCCN2c2nc(N3CCN(C(C)=O)CC3)nc3c2CN(C(C)C)C3=O)cc1F [Example 300, 2-(4-acetylpiperazin-1-yl)-4-[(2R)-2-(4-ethoxy-3-fluorophenyl)pyrrolidin-1-yl]-6-(1-methylethyl)-5,6-dihydro-7H-pyrrolo[3,4-d]pyrimidin-7-one]",192
6,"CC(=O)N1CCN(c2nc(N[C@H](C)c3ccc(OCC4CC4)c(F)c3)c3c(n2)C(=O)N(C(C)C)C3)CC1 [Example 322, (R)-2-(4-acetylpiperazin-1-yl)-4-(1-(4-(cyclopropylmethoxy)-3-fluorophenyl)ethylamino)-6-isopropyl-5H-pyrrolo[3,4-d]pyrimidin-7(6H)-one]",1900
7,"CC(=O)N1CCN(c2nc(NC(C)c3ccc4c(c3)CC(C)O4)c3c(n2)C(=O)N(C(C)C)C3)CC1 (stereo not shown) [Example 324, 2-(4-acetylpiperazin-1-yl)-6-isopropyl-4-(1-(2-methyl-2,3-dihydrobenzofuran-5-yl)ethylamino)-5H-pyrrolo[3,4-d]pyrimidin-7(6H)-one]",179
8,"CCOc1ncc([C@@H](C)Nc2nc(N3CCN(C(C)=O)CC3)nc3c2CN(C(C)C)C3=O)cc1C [Example 331, (R)-2-(4-acetylpiperazin-1-yl)-4-(1-(6-ethoxy-5-methylpyridin-3-yl)ethylamino)-6-isopropyl-5H-pyrrolo[3,4-d]pyrimidin-7(6H)-one]",195
9,"CCOc1ccc(CNc2nc(N3CCN(C(C)=O)CC3)nc3c2CN(C(C)C)C3=O)c(OC)c1 [Example 335, 2-(4-acetylpiperazin-1-yl)-4-(4-ethoxy-2-methoxybenzylamino)-6-isopropyl-5H-pyrrolo[3,4-d]pyrimidin-7(6H)-one]",225
10,"COc1cc(OC(C)C)ccc1CNc1nc(N2CCN(C(C)=O)CC2)nc2c1CN(C(C)C)C2=O [Example 337, 2-(4-acetylpiperazin-1-yl)-4-(4-isopropoxy-2-methoxybenzylamino)-6-isopropyl-5H-pyrrolo[3,4-d]pyrimidin-7(6H)-one]",79.5
11,"CC(C)N1Cc2c(NC(C)(C)Cc3ccc(F)cc3)nc(N3CCn4ccnc4C3)nc2C1=O [Example 340, 2-(5,6-dihydroimidazo[1,2-a]pyrazin-7(8H)-yl)-4-{[2-(4-fluorophenyl)-1,1-dimethylethyl]amino}-6-(1-methylethyl)-5,6-dihydro-7H-pyrrolo[3,4-d]pyrimidin-7-one]",2710

# Next, values leading:
row,IC50 [nM],SMILES
1,102,"CC(=O)N1CCN(c2nc(N[C@H](C)c3ccc(C4CC4)cc3)c3c(n2)C(=O)N(C(C)C)C3)CC1 [Example 192, (R)-2-(4-acetylpiperazin-1-yl)-4-(1-(4-cyclopropylphenyl)ethylamino)-6-isopropyl-5H-pyrrolo[3,4-d]pyrimidin-7(6H)-one]"
2,1140,"COc1ccc(C2CCCN2c2nc(N3CCN(C(C)=O)CC3)nc3c2CN(C(C)C)C3=O)cc1 (stereo not shown) [Example 299, 2-(4-acetylpiperazin-1-yl)-4-[2-(4-methoxyphenyl)pyrrolidin-1-yl]-6-(1-methylethyl)-5,6-dihydro-7H-pyrrolo[3,4-d]pyrimidin-7-one]"
3,410,"CC(=O)N1CCN(c2nc(NCc3ccc4c(c3)CC(C)O4)c3c(n2)C(=O)N(C(C)C)C3)CC1 (stereo not shown) [Example 323, 2-(4-acetylpiperazin-1-yl)-6-isopropyl-4-((2-methyl-2,3-dihydrobenzofuran-5-yl)methylamino)-5H-pyrrolo[3,4-d]pyrimidin-7(6H)-one]"
4,> 30000,"CC(=O)N1CCN(c2nc(N[C@H](C)c3ccc(CO)cc3)c3c(n2)C(=O)N(C(C)C)C3)CC1 [Example 332, (R)-2-(4-acetylpiperazin-1-yl)-4-(1-(4-(hydroxymethyl)phenyl)ethylamino)-6-isopropyl-5H-pyrrolo[3,4-d]pyrimidin-7(6H)-one]"
5,2970,"CCOc1ccc(CN(C)c2nc(N3CCN(C(C)=O)CC3)nc3c2CN(C(C)C)C3=O)c(OC)c1 [Example 334, 2-(4-acetylpiperazin-1-yl)-4-((4-ethoxy-2-methoxybenzyl)(methyl)amino)-6-isopropyl-5H-pyrrolo[3,4-d]pyrimidin-7(6H)-one]"
6,1610,"CCOc1cc(OC)ccc1CN(C)c1nc(N2CCN(C(C)=O)CC2)nc2c1CN(C(C)C)C2=O [Example 336, 2-(4-acetylpiperazin-1-yl)-4-((2-ethoxy-4-methoxybenzyl)(methyl)amino)-6-isopropyl-5H-pyrrolo[3,4-d]pyrimidin-7(6H)-one]"
7,2640,"COCc1ccc([C@@H](C)Nc2nc(N3CCN(C(C)=O)CC3)nc3c2CN(C(C)C)C3=O)cc1F [Example 338, 2-(4-acetylpiperazin-1-yl)-4-({(1R)-1-[3-fluoro-4-(methoxymethyl)phenyl]ethyl}amino)-6-(1-methylethyl)-5,6-dihydro-7H-pyrrolo[3,4-d]pyrimidin-7-one]"
8,2280,"CC(=O)N1CCN(c2nc3c(c(N(C)Cc4cnn(-c5ccc(F)cc5)c4)n2)CN(C(C)C)C3=O)CC1 [Example 339, 2-(4-acetylpiperazin-1-yl)-4-[{[1-(4-fluorophenyl)-1H-pyrazol-4-yl]methyl}(methyl)amino]-6-(1-methylethyl)-5,6-dihydro-7H-pyrrolo[3,4-d]pyrimidin-7-one]"
9,29.2,"CC(=O)N1CCN(c2nc3c(c(N(C)Cc4cc5ccc(Cl)cc5cn4)n2)CN(C(C)C)C3=O)CC1 [Example 341, 2-(4-acetylpiperazin-1-yl)-4-(((7-chloroisoquinolin-3-yl)methyl)(methyl)amino)-6-isopropyl-5H-pyrrolo[3,4-d]pyrimidin-7(6H)-one]"
10,1230,"CC(=O)N1CCN(c2nc3c(c(N(C)Cc4cc5cc(C)ccc5cn4)n2)CN(C(C)C)C3=O)CC1 [Example 342, 2-(4-acetylpiperazin-1-yl)-6-isopropyl-4-(methyl((6-methylisoquinolin-3-yl)methyl)amino)-5H-pyrrolo[3,4-d]pyrimidin-7(6H)-one]"

# Molecular target: T2, hP2X3 (human Purinergic P2X receptors subtype 3), clone B (Homo sapiens, UniProt P56373)
# T2 sequence (P56373 1-397): T1 sequence (P56373 1-397)
# Assay: hP2X3 FLIPR calcium (Fluo-4) antagonist assay, clone B
# Settings: Human P2X3 FLIPR Clone B IC50 (nM), RLE cells expressing hP2X3 clone B (NM_002559); agonist 500 nM α,β-methylene-ATP
row,IC50 [nM],SMILES
1,200,"CC(=O)N1CCN(c2nc(NCc3cnc4ccccc4c3)c3c(n2)C(=O)N(C(C)C)C3)C(C)C1 (stereo not shown) [Example 352, 2-(4-Acetyl-2-methylpiperazin-1-yl)-6-isopropyl-4-(quinolin-3-ylmethylamino)-5H-pyrrolo[3,4-d]pyrimidin-7(6M)-one]"
